These results are taken from ChEMBL document CHEMBL1201862, “PubChem BioAssay data set” (2004).

The structures appear in SMILES notation. Activity calls are given as the source filed them.

Assay [1] has as its target Luciferin 4-monooxygenase (Photinus pyralis, UniProt P08659). Put plainly: inhibition of purified Photinus pyralis luciferase – biochemical, luminescence, dose response (AID 1891).
A short description of assay [2]: Luminescence Cell-Based Dose Confirmation HTS to Identify Inhibitors of Platelet Dense Granule Release. [Related pubchem assays: 1663 (Primary HTS), 1678 (Summary of Project)]. In kind it is functional.
Assay [3] is described as follows: PAR1 agonist-induced platelet activation inhibition – cell-based, fluorescence, flow cytometry, human platelets, dose response (AID 2511). In kind it is functional. Background: In flow cytometry, cells or beads pass a laser one at a time.
The nature of assay [4]: Fluorescence Cell-Based Dose Response to Identify Inhibitors of Thrombin Receptor-Activating Peptide SFLLRN-Mediated P-Selectin Induction on Platelets. [Related pubchem assays: 1663 (Primary HTS), 1889 (retest at dose ), 1891 (counterscreen), 1678 (Project Summary)]. In kind it is functional. (The purpose of a counterscreen is to sort out artefacts and off-target activity.)

Assay [5] concerns the target Induced myeloid leukemia cell differentiation protein Mcl-1 (Homo sapiens, UniProt Q07820). Kind of assay: blockers of MCL1 binding to BIM peptide – biochemical, fluorescence polarization, BIM-BH3 peptide, 1536-well, dose response (AID 2217).
A further assay addresses Bcl-2-like protein 1 (Homo sapiens, UniProt Q07817). Kind of assay: blockers of BCLXL peptide binding – biochemical, fluorescence polarization, 1536-well, selectivity assay for MCL1 inhibitor project, dose response (AID 2218). A general note: In fluorescence polarisation assays a small probe gives low polarisation when free and higher when bound to something large.
Assay [6] deals with T1, Replicative DNA helicase DnaB (Mycobacterium tuberculosis, UniProt P9WMR3).
T1 sequence (P9WMR3 whole entry): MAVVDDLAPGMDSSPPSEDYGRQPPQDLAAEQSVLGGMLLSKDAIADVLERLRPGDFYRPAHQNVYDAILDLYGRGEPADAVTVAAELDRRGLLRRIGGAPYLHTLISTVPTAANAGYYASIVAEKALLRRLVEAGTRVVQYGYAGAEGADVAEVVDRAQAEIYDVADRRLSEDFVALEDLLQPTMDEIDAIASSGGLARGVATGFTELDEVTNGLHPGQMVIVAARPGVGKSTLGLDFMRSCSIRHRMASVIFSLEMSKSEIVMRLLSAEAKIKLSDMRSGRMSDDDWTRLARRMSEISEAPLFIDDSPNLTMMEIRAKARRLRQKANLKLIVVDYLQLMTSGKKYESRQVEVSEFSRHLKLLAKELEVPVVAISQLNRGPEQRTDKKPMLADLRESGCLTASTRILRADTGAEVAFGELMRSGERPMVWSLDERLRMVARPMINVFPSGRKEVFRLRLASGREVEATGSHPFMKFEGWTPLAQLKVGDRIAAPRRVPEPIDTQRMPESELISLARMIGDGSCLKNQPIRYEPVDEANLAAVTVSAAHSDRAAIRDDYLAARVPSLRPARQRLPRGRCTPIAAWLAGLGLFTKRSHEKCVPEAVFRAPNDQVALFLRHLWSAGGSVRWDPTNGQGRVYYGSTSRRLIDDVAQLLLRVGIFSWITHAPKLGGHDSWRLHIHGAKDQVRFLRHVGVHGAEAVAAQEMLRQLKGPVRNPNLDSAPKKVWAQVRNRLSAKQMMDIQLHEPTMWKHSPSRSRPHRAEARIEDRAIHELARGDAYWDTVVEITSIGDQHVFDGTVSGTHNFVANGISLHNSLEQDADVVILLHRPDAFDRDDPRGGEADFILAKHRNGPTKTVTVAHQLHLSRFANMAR
Kind of assay: DnaB intein splicing inhibitors, dose response, biochemical, cell-free fluorescence (AID 449749). The class given is functional.

A further assay deals with T2, Protein RecA (Mycobacterium tuberculosis, UniProt P9WHJ3).
T2 sequence (P9WHJ3 whole entry): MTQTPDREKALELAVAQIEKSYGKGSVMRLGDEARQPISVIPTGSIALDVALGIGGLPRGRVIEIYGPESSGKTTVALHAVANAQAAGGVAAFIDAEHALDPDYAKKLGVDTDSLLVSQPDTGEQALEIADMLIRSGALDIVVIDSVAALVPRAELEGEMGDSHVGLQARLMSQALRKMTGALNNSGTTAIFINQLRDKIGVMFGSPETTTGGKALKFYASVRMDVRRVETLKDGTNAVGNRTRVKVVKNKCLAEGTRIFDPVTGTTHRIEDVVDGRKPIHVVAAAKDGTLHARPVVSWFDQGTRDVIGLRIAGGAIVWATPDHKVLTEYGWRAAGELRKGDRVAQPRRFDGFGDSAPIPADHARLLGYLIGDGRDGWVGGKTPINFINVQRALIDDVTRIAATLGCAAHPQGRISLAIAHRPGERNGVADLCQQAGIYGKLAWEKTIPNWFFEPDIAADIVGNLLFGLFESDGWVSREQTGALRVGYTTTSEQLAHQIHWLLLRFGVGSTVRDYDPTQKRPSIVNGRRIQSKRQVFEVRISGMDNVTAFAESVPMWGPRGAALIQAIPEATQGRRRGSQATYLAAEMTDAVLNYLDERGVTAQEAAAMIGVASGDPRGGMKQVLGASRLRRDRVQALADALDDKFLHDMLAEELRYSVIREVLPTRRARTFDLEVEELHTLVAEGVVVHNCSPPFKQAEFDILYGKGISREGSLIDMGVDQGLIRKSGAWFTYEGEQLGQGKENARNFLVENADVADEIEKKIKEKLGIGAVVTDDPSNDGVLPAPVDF
Kind of assay: Fluorescence Cell-Free Homogeneous Dose Retest to Identify Inhibitors of RecA-Intein Splicing Activity. [Related pubchem assays (depositor defined):AID2097, AID2223, AID489010, AID492950]. In kind it is functional.

The next assay deals with NADPH oxidase 1 (Homo sapiens, UniProt Q9Y5S8). Put plainly: Luminescence-based cell-based dose response assay to identify inhibitors of NADPH oxidase 1 (NOX1). In kind it is functional.
For assay [7], the target named is T3, RNA-binding protein pos-1 (Caenorhabditis elegans, UniProt G5EF15).
T3 sequence (G5EF15 whole entry): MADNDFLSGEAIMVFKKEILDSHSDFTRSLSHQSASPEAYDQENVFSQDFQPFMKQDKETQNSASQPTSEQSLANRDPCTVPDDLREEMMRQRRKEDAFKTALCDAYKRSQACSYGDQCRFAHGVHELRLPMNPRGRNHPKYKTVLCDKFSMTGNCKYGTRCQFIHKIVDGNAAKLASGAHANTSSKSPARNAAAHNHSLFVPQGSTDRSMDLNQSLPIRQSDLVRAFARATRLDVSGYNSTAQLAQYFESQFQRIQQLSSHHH
Put plainly: disruptors of C. elegans POS-1 RNA interaction – biochemical, fluorescence polarization, dose response (AID 1964).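 Note: purified POS-1 fused to maltose binding protein made in E. coli; potency of compounds blocking POS-1 binding to fluorescent RNA.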

For assay [8], the target named is T4, Zinc finger protein mex-5 (Caenorhabditis elegans, UniProt Q9XUB2).
T4 sequence (Q9XUB2 whole entry): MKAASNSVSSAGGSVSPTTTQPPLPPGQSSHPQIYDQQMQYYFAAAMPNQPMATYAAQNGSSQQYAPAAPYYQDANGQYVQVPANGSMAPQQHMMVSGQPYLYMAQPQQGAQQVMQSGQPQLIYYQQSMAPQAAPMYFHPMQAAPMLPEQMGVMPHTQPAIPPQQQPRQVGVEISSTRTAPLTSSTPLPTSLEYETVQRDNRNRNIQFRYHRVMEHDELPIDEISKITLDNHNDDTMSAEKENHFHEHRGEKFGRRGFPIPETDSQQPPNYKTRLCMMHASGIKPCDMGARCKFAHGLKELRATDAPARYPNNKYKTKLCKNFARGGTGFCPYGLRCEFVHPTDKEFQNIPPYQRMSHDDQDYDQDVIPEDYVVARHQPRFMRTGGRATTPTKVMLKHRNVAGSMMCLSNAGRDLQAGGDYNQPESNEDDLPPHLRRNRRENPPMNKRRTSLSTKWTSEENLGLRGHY
Put plainly: potency of MEX-5 RNA-binding blockers – biochemical, C. elegans, fluorescence polarization, dose response (AID 1960).

In assay [9] the target is T5, Voltage-gated N-type calcium channel alpha-1B subunit/Amyloid beta A4 precursor protein-binding family A member 1 (Homo sapiens, UniProt Q00975+Q02410). The class given is protein assay.
Assay [10] has as its target T6, Mannose-6-phosphate isomerase (Homo sapiens, UniProt P34949).
T6 sequence (P34949 whole entry): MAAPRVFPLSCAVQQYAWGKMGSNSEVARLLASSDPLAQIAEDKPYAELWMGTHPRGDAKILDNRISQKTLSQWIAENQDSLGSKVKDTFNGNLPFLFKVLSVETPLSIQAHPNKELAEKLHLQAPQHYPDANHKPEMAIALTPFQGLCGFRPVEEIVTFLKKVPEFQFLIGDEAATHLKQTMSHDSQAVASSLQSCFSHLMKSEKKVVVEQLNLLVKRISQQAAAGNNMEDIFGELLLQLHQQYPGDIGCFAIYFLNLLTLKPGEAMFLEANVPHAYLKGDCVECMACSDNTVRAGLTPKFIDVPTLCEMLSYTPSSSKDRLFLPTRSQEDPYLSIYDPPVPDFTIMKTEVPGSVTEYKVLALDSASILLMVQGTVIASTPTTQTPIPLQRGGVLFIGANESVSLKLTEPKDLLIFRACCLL
Kind of assay: MPI enzyme activity inhibition – biochemical, fluorescence intensity, coupled assay, primary screen (AID 1209).

In assay [11] the target is T5, Voltage-gated N-type calcium channel alpha-1B subunit/Amyloid beta A4 precursor protein-binding family A member 1. In kind it is protein assay. The source holds these as a separate data set.
The target in assay [12] is 5-hydroxytryptamine receptor 1E (Homo sapiens, UniProt P28566). Put plainly: Counterscreen assay for S1P3 antagonists: Dose response cell-based high throughput screening assay to identify antagonists of the 5-Hydroxytryptamine Receptor Subtype 1E (5HT1E). [Related pubchem assays: 1429, 485 ]. In kind it is functional.
The target in assay [13] is Sphingosine 1-phosphate receptor 3 (Homo sapiens, UniProt Q99500). Put plainly: Dose response cell-based high throughput screening assay for antagonists of the Sphingosine 1-Phosphate Receptor 3 (S1P3). [Related pubchem assays: 1429, 485 ]. The class given is functional.
Assay [14] deals with T7, Short transient receptor potential channel 4 (Mus musculus, UniProt Q9QUQ5).
T7 sequence (Q9QUQ5 whole entry): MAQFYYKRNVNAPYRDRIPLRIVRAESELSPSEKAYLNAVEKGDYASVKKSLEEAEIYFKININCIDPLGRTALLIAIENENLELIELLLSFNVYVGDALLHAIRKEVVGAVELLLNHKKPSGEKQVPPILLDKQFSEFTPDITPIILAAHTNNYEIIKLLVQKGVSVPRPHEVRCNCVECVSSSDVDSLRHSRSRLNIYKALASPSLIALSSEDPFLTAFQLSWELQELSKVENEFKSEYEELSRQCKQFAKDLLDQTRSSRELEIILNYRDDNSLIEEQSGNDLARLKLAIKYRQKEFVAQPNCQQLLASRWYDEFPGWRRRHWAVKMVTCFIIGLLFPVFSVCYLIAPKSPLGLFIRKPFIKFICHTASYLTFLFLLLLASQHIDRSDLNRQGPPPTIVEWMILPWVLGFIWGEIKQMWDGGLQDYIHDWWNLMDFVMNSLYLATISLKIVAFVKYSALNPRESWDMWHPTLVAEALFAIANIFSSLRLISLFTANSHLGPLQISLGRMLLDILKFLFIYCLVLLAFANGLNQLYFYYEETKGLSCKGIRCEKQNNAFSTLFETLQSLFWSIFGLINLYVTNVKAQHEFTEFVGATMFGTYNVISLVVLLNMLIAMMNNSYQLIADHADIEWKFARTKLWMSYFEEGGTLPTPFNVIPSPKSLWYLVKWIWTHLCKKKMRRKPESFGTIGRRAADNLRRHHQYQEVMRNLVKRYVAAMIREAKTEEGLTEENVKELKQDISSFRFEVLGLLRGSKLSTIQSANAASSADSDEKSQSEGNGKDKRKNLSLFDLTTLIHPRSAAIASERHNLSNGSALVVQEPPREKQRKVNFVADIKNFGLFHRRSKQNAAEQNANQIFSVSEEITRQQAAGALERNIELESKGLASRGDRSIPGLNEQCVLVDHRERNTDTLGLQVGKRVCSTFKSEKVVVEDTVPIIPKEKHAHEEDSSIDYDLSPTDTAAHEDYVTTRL
Put plainly: calcium entry via TRPC4 opening agents – cell-based, HEK293 TRPC4/mu-opioid, Fluo-4 calcium, dose response (AID 434937). The class given is functional.

As usually defined, the EC50 is the concentration needed to bring the measured effect to its halfway point. The IC50 is the point on the concentration scale where inhibition reaches its midpoint. The AC50 is the midpoint of the concentration-response curve, whichever way the signal moves.

T5 sequence (Q00975 whole entry): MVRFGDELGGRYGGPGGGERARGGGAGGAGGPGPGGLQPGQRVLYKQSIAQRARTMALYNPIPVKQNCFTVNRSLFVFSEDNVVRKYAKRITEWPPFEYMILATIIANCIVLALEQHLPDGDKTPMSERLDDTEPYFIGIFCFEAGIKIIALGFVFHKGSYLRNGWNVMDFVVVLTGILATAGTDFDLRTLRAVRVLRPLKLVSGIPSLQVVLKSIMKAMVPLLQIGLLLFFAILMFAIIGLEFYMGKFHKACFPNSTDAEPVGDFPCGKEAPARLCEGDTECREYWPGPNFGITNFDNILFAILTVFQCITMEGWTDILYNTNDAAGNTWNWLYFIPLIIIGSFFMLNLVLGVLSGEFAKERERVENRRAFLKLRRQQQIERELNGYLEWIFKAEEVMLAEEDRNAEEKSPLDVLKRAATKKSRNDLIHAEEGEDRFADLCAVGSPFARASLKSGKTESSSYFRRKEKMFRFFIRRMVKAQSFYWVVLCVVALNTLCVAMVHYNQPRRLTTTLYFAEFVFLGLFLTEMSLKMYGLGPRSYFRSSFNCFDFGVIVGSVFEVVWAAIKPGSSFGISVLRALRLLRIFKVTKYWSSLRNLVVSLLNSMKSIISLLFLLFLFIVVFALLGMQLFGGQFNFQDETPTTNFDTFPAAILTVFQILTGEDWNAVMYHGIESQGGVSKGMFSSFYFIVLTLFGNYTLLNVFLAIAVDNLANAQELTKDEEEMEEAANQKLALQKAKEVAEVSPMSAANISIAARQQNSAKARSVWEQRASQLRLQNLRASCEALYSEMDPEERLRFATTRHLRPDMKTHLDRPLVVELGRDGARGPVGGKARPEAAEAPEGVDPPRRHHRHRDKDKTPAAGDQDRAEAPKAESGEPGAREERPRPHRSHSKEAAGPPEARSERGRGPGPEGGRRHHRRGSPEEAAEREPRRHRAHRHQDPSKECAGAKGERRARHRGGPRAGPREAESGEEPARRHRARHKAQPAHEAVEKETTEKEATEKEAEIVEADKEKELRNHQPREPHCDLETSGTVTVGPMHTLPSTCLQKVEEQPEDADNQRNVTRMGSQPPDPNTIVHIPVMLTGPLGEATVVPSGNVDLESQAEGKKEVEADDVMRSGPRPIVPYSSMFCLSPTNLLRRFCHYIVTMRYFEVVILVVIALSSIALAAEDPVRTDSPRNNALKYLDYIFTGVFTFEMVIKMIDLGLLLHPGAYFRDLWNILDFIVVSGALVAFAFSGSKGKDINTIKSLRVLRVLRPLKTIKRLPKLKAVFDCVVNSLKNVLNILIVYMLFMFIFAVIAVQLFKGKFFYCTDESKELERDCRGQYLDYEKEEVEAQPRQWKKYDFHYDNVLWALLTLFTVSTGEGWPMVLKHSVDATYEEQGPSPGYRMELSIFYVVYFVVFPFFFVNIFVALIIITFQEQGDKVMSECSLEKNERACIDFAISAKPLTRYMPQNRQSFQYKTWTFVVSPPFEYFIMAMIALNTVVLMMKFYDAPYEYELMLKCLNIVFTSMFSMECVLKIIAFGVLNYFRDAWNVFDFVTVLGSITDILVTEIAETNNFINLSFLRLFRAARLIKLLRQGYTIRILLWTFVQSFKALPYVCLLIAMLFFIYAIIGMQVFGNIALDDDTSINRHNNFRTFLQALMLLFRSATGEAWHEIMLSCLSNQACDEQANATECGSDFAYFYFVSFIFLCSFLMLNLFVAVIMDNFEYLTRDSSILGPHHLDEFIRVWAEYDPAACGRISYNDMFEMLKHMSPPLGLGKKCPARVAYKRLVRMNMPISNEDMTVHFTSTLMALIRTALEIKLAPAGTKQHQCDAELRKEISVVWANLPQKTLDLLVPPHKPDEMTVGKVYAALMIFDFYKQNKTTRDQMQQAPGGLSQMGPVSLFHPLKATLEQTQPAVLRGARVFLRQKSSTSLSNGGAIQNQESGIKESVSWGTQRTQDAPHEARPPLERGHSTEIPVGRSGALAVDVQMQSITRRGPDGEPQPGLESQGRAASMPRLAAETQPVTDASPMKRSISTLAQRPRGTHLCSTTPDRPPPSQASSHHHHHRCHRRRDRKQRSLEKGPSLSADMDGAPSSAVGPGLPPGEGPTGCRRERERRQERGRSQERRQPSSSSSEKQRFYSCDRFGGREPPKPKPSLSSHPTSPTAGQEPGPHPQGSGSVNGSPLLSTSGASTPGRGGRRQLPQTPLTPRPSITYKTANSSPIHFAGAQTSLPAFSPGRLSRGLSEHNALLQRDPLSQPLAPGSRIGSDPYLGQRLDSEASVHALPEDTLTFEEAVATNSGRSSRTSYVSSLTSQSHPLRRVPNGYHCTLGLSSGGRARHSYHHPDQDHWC
T5 sequence (Q02410 whole entry): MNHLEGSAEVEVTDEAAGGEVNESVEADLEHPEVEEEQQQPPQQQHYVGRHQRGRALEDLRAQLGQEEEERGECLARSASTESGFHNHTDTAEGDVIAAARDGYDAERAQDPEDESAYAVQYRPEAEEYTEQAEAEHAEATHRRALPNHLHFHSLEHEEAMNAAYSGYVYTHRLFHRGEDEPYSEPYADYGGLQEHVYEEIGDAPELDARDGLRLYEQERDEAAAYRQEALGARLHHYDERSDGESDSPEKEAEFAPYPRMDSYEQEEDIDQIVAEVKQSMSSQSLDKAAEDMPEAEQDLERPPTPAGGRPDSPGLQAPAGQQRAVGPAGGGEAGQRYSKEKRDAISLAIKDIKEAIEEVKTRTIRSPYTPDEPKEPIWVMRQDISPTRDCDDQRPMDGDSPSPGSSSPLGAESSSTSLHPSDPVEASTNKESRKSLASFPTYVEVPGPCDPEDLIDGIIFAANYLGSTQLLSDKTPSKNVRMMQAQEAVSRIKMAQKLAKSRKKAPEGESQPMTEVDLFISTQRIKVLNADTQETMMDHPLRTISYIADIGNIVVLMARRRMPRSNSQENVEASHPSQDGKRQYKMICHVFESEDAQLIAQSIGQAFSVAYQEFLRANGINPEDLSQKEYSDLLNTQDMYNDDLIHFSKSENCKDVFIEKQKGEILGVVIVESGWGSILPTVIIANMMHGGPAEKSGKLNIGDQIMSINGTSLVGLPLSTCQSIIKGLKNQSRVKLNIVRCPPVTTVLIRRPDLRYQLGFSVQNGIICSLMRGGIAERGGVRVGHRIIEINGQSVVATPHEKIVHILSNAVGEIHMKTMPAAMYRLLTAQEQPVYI
Chain of Induced myeloid leukemia cell differentiation protein Mcl-1 (Q07820 whole entry): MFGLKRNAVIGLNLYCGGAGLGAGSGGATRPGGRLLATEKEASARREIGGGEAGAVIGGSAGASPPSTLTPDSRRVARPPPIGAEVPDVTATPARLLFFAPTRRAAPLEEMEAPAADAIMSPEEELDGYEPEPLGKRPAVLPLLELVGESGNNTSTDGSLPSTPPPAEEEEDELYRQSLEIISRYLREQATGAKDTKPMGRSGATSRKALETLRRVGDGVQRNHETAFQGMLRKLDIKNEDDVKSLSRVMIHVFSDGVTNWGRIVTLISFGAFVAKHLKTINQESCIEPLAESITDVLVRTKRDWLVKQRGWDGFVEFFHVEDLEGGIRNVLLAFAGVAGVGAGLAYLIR
Chain of Bcl-2-like protein 1 (Q07817 whole entry): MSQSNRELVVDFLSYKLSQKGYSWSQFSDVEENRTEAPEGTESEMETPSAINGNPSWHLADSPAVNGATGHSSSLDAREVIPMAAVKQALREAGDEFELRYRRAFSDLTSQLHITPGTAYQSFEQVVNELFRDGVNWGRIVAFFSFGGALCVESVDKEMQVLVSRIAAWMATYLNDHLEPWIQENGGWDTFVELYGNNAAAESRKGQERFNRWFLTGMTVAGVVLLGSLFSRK
Chain of NADPH oxidase 1 (Q9Y5S8 whole entry): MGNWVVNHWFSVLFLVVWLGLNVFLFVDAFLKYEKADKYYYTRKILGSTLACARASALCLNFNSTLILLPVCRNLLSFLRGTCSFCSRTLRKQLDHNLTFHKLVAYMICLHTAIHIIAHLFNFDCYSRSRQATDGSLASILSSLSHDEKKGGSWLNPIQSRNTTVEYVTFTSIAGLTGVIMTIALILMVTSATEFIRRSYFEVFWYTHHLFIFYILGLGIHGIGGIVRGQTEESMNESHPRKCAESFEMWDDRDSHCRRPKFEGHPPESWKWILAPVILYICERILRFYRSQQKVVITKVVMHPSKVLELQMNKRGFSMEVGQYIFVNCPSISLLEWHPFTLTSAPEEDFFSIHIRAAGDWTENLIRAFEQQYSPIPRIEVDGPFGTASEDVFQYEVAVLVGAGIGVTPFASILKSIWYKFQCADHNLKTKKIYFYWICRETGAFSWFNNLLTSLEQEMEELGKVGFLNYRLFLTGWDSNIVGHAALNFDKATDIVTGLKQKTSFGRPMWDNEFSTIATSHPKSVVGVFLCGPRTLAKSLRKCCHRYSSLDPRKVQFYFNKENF
Chain of Sphingosine 1-phosphate receptor 3 (Q99500 whole entry): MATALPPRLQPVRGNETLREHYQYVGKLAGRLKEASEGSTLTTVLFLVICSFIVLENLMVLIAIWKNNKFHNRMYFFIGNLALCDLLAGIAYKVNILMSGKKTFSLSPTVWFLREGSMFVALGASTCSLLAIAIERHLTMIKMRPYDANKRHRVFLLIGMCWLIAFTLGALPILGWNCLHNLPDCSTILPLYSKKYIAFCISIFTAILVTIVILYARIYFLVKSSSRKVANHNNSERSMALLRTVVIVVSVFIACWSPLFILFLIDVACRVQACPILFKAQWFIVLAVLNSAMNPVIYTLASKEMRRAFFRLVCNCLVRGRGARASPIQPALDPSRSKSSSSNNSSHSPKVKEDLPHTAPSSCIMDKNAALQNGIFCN
Chain of 5-hydroxytryptamine receptor 1E (P28566 whole entry): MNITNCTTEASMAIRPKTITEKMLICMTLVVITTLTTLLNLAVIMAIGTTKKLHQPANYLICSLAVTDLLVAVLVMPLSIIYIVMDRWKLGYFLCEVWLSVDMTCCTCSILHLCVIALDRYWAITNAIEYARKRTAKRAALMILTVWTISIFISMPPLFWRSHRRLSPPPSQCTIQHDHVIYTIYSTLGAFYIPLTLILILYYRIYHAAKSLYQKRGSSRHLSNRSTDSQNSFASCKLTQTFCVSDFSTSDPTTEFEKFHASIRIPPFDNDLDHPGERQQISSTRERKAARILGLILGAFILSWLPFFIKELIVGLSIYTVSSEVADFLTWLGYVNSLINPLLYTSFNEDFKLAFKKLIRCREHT

Take `O=C(Nc1cccc(NC(=O)c2ccccc2Cl)c1)c1ccco1`: the EC50 in assay [1] was > 112 µM (not active); in [2], 5.86 µM (active); in assay [3], < 300 nM (active); in assay [4], < 1 µM (active).

As to `CC(=O)OCCCNc1cc(SCc2ccco2)c2nonc2c1[N+](=O)[O-]`, the IC50 in assay [5] is given as > 36.3 µM (not active); on Bcl-2-like protein 1, > 109 µM (not active). Further, the AC50 in [6] was 4.6 µM (active). The EC50 at Protein RecA was 3.49 µM (active).

For `CC(=O)N1c2ccccc2Sc2ccccc21`, on NADPH oxidase 1, the IC50 is 4.57 µM (active).

As to `NC1=CC(=O)c2cccc3cccc1c23`, the EC50 is 7.46 µM (inconclusive) in assay [7] and 1.98 µM (inconclusive) in assay [8]. In addition, the IC50 is 12.7 µM (active) in assay [9], 16.7 µM (active) in assay [10] and > 50 µM (inactive) in [11].

`O=C(CCCN1CCC2(CC1)C(=O)NCN2c1ccccc1)c1ccc(F)cc1` [SPIPERONE]: the IC50 in [12] and in assay [13] was > 50 µM (not active) in each case. In addition, the EC50 in assay [14] is 6.68 µM (active).
